The source of these data is patent US11752116B2, “Method of viral inhibition” (priority 2013, dated 2023).

In series [1] the test system is DENV-1. Description: ADE-mediated DENV-1 infection of THP-1 cells, plaque assay. Particulars: Dengue virus, DENV1, THP-1, 48 h, read-out: EC50, ADE-mediated DENV-1 infection. The class given is cell-based. From the text: In a cell culture model of antibody-dependent enhanced (ADE) DENV infection, THP-1 human monocyte cells infected with DENV-1 in the presence of sub-neutralising levels of a humanized version of the 4G2 antibody, which is cross-reactive with flavivirus envelope proteins (Paradkar et al., 2010 Bio Sci Rep.), show increased virus production compared to cells infected with virus alone. This model mimics the ADE phenomenon thought to occur in patients infected with a second serotype of DENV, which is associated with more severe DENV disease.
Briefly, humanized 4G2 antibody (0.05 μg/ml) was combined with DENV-1 (MOI of 10), and 4-HPR (concentrations as indicated in FIG. 7) in serum-free media, and incubated on ice for 1 h for the immune complex to form. Immune complex inoculums were added to THP-1 cells and incubated for 48 h. Supernatants were collected after 2 days and infectious virus production was quantified by plaque assay.

Series [2] has as its system DENV-2. Description: Time-of-addition DENV-2 assay in Vero cells, intracellular viral RNA by qRT-PCR. The following applies: 10 μM for 2 h, added prior to, during, or up to 24 h p.i. The format is cell-based. On the procedure:
To investigate whether 4-HPR can inhibit DENV-2 replication when added prior to infection or post infection (p.i.), 10 μM drug or DMSO (drug diluent) was added to Vero cells 2 h prior to infection, for 2 h during infection, 2 h p.i., or 24 h p.i. In each instance the drug was incubated with the cells for 2 h then removed. Infections were performed for 2 h (MOI of 1) followed by analysis of intracellular viral RNA by qRT-PCR 48 h p.i. Data shown are the mean+SD from one experiment, representative of three independent assays.

Series [3] relates to DENV-1. Description: Plaque assay in Huh-7 cells, DENV-1. The class given is cell-based. Particulars: Dengue virus, DENV1, Huh-7, 48 h, read-out: EC50, infectious virus titre DENV 1. As to the method: (§1) To ensure the antiviral activity of 4-HPR is not cell-line specific Huh-7 cells were also infected with DENV-1, 2, 3 or 4 (MOI of 0.3) in the presence of increasing concentrations of 4-HPR, with infectious virus titres determined by plaque assay at 48 h p.i.

In series [4] the test system is DENV-3. Description: Cell-based flavivirus immunodetection assay in BHK-21 cells, DENV-3. The following applies: MOI of 0.3, 48 h p.i. As to the method: (§2) To investigate this, BHK-21 cells were infected with DENV serotypes 1, 2, 3 or 4 (MOI of 0.3) for 1 h in the presence of 4-HPR or 4-MPR (concentrations as indicated in FIG. 6A). Virus inoculum was removed and fresh media containing the indicated compounds was added. Virus infection rates were determined 48 h p.i. using a cell-based flavivirus immunodetection assay. Briefly, cells were fixed and stained for DENV structural protein, E, followed by addition of Alexa Fluor 488 anti-mouse IgG. Viral antigen quantification was performed using Imagexpress. Data shown are representative of a single experiment

For series [5], the system named is DENV-2. As to the kind of experiment: Plaque assay in Huh-7 cells, DENV-2. Particulars: Dengue virus, DENV2, Huh-7, 48 h, read-out: EC50, infectious virus titre DENV 2. The class given is cell-based. As to the method: as §1
For series [6], the system named is DENV-4. As to the kind of experiment: Plaque assay in Huh-7 cells, DENV-4. Particulars: Dengue virus, DENV4, Huh-7, 48 h, read-out: EC50, infectious virus titre DENV 4. The class given is cell-based. As to the method: as §1
Series [7] concerns PERK pathway. As to the kind of experiment: Activation of PERK pathway of the unfolded protein response in DENV-infected cells. The class given is cell-based.
The subject of series [8] is DENV-4. As to the kind of experiment: Cell-based flavivirus immunodetection assay in BHK-21 cells, DENV-4. The following applies: Dengue virus, DENV4, BHK-21, 48 h, read-out: EC50, DENV-4 replication. On the procedure:
as §2

The subject of series [9] is DENV-1. As to the kind of experiment: ADE-mediated DENV-1 infection of human PBMCs, plaque assay. The format is cell-based. The following applies: Dengue virus, DENV1, PBMC, MOI of 10, 48 h, read-out: ex vivo EC50, ADE-mediated DENV-1 infection. As to the method:
The antiviral activity of 4-HPR was investigated in the more physiologically relevant human system of peripheral blood mononuclear cells (PBMCs), a major target of DENV infection in humans.
PBMCs were prepared from a healthy donor buffy coat using a Ficoll gradient, prior to ADE-mediated DENV-1 infection (MOI of 10) in the presence of increasing concentrations of 4-HPR or 4-MPR, and infectious virus titres determined by plaque assay 48 h later.

For series [10], the system named is DENV-2. As to the kind of experiment: Cell-based flavivirus immunodetection assay in BHK-21 cells, DENV-2. The following applies: Dengue virus, DENV2, BHK-21, 48 h, read-out: EC50, DENV-2 replication. On the procedure: as §2
For series [11] the following is noted: up to 4,000 mg/m^2/day, daily for 28 days, including in children; cited from earlier work.
Series [12] relates to DENV-1. Description: Cell-based flavivirus immunodetection assay in BHK-21 cells, DENV-1. Particulars: MOI of 0.3, 48 h p.i. On the procedure:
as §2

Series [13] relates to Vero cells. Description: XTT cell viability assay in Vero cells. The class given is cell-based. The following applies: 24 h, up to 25 μM. As to the method: To determine the effect of 4-HPR on cell viability, and to ensure that the reduced viral titres were not due to compound toxicity, XTT reagent was used to measure mitochondrial activity of drug treated cells. Briefly, Vero cells were incubated with 0, 1, 10 or 25 μM 4-HPR for 24 h. XTT reagent was added directly to cells and incubated for 6 h at 37° C. prior to spectrophotometric analysis. Data shown are the mean+SD of a single experiment performed in triplicate wells.
A general note: Tetrazolium assays rely on reduction of a dye to a coloured formazan, in cell work by metabolically active cells.

Structures are written as SMILES.

With `CC1=C(/C=C/C(C)=C/C=C/C(C)=C/C(=O)Nc2ccc(O)cc2)C(C)(C)CCC1` [4-HPR, N-(4-hydroxyphenyl) retinamide], the concentration giving a half-maximal response (EC50) – broadly, the concentration that produces a half-maximal response – is 850 nM in series [1]; 2600 nM in series [3]; 2100 nM in series [5]; 2100 nM in series [6]; 840 nM in series [8]; 810 nM in series [9]. Besides, in series [10], the EC50 was 2240 nM. Also, the “intracellular DENV-2 RNA copies 48 h p.i.” value in series [2] is listed as “substantial reduction”. Moreover, the “EC50, DENV-3 replication” value in [4] is on record as “low EC50”. Besides, the “activation of PERK pathway within the unfolded protein response” value in series [7] was “induces activation of the pro-apoptotic PERK pathway”. Besides, in series [11], the “toxicity profile in cancer treatment” value was “favourable toxicity profiles”. In series [12], the “EC50, DENV-1 replication” value was “low EC50”. Further, the “effect on cell viability (XTT)” value in [13] is recorded as “no effect on cell viability”.
